Assay [1] is described as follows: The background fluorescence was measured in TE buffer in the presence of calf thymus DNA (4 ug/mL) at a molar ratio of 2000:1 (Compound:DNA).
Assay [2] in a line: The background fluorescence was measured in TE buffer in the presence of calf thymus DNA (4 ug/mL) at a molar ratio of 4000:1 (Compound:DNA).
The nature of assay [3]: The background fluorescence was measured in TE buffer in the presence of calf thymus DNA (4 ug/mL) at a molar ratio of 8000:1 (Compound:DNA).
Assay [4] in a line: The background fluorescence was measured in TE buffer in the presence of calf thymus DNA (4 ug/mL) at a molar ratio of 1000:1 (Compound:DNA).
Assay [5] is described as follows: Enhancement in fluorescence intensity was calculated as fluorescence intensity in presence of DNA/fluorescence intensity in absence of DNA.
The nature of assay [6]: The background fluorescence was measured in TE buffer in the absence of DNA.

Several values for one entry are separate records, joined by “and”; a condition that tells them apart may be missing. Equal values may be shown once.

For `N=C(N)c1ccc(-c2cc3ccc(C(=N)N)cc3[nH]2)cc1`, the Fluorescence intensity in assay [1] was determined as 214; in assay [2], 236; in assay [3], 295; in assay [4], 179.

For `N=C(N)c1ccc(-c2[nH]c3cc(C(=N)N)ccc3c2Cc2cc([N+](=O)[O-])ccc2O)cc1`, the Fluorescence intensity is 75 in assay [1]; 94.8 in assay [2]; 86.7 in assay [3]; 25.3 and 15.7 and 9.8 in assay [6]. Moreover, the Enhancement in assay [5] is 3.4 and 6 and 7.7.

These data come from ChEMBL document CHEMBL1136479, “DAPI derivative: a fluorescent DNA dye that can be covalently attached to biomolecules” (Bioorg Med Chem Lett, 2003).
